Experimental data as given in US10508085B2, “Compounds and methods for IDO and TDO modulation, and indications therefor” (Plexxikon Inc., priority 2016, dated 2019).
Like-named read-outs stand apart in the source and are kept apart here.

How the values were obtained:
[1] = target: T1, Human Indoleamine 2,3-dioxygenase (IDO) (Homo sapiens, UniProt P14902); test: Human IDO enzymatic assay (kynurenine level); type: biochemical; conditions: 6 nM IDO, 10 μM L-Trp; geometric mean; read-out: IDO1 GMean: IC50 (μM) (Biochemical Assay)
T1 construct: His tag (N); made in house; host or cells: E. coli
T1 sequence (P14902 whole entry): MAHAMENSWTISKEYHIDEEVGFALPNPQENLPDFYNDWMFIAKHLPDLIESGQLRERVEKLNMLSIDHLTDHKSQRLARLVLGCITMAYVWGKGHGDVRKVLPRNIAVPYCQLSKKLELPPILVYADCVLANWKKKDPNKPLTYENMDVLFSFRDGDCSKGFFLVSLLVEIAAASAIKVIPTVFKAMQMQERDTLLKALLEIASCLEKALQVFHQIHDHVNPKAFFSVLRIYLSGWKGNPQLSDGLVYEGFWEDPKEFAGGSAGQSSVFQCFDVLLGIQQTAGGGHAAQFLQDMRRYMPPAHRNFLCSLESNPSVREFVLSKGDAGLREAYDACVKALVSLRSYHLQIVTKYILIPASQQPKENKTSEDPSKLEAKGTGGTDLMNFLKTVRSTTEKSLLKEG
Procedure, shortened: (§1)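 Compound is mixed with His-tagged enzyme from E. coli in pH 6.5 phosphate buffer containing ascorbate, methylene blue and catalase, at room temperature. IDO uses 6 nM enzyme and 10 μM Trp for 20 min. TDO uses 1 nM enzyme and 350 μM Trp for 70 min. TCA stops the reaction, and IC50 is derived from kynurenine levels.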

[2] = target: T2, Human Tryptophan 2,3-dioxygenase (TDO) (Homo sapiens, UniProt P48775); test: Human TDO enzymatic assay (kynurenine level); type: biochemical; conditions: 1 nM TDO, 350 μM L-Trp; geometric mean; read-out: TDO GMean: IC50 (μM) (Biochemical Assay)
T2 construct: His tag (N); made in house; host or cells: E. coli
T2 sequence (P48775 whole entry): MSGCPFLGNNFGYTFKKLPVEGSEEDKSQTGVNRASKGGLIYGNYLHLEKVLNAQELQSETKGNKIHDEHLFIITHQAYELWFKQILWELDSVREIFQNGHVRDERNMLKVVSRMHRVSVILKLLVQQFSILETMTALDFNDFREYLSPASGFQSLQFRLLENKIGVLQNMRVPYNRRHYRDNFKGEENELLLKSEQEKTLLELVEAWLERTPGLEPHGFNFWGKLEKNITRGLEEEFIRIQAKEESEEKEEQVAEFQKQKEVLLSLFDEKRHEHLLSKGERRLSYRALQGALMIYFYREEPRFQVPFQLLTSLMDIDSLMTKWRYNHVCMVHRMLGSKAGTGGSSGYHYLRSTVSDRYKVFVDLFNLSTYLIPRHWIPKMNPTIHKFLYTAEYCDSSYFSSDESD
Procedure, shortened: as §1

[3] = target: T3, human IDO (IDO1-expressing HEK293 cells) (Homo sapiens, UniProt P14902); test: Cell based kynurenine assay, IDO1-expressing HEK293 cell clones; conditions: IDO1-expressing HEK293 cells, geometric mean, read-out: HEK293 IDO1 Kynurenine GMean IC50 (μM) (Cellular Assay)
T3 construct: expressed in transfected cells
T3 sequence (P14902 whole entry): as the sequence (P14902 whole entry) above
Procedure, shortened: (§2)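 HEK293 clones stably expressing human IDO1 or human TDO (CMV promoter), 2.5×10^4 cells/well, given serial compound dilutions for 24 h. Kynurenine measured in supernatant; inhibition relative to cell/0.2% DMSO and media-only controls. IC50 by nonlinear regression.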

[4] = target: T4, human TDO (TDO-expressing HEK293 cells) (Homo sapiens, UniProt P48775); test: Cell based kynurenine assay, TDO-expressing HEK293 cell clones; conditions: TDO-expressing HEK293 cells, geometric mean, read-out: HEK293 TDO Kynurenine GMean IC50 (μM) (Cellular Assay)
T4 construct: expressed in transfected cells
T4 sequence (P48775 whole entry): as the sequence (P48775 whole entry) above
Procedure, shortened: as §2

IC50 [1] [µM] | IC50 [2] [µM] | IC50 ([3]; 24 hours incubation) [µM] | IC50 ([4]; 24 hours incubation) [µM] | IC50 ([3]; 24 hours) [µM] | IC50 ([4]; 24 hours) [µM] | Structure (SMILES)
0.0001 to 10 | 0.0001 to 10 | 0.0001 to 10 | 0.0001 to 10 | – | – | CCNC(=O)N1CCC(C(C)(C)C(O)c2cc(Cl)cc3cn[nH]c23)CC1 (stereo not drawn) [Compound P-0399, 4-(1-(5-chloro-1H-indazol-7-yl)-1-hydroxy-2-methylpropan-2-yl)-N-ethylpiperidine-1-carboxamide]
0.0001 to 10 | 0.0001 to 10 | 0.0001 to 10 | 0.0001 to 10 | – | – | CC(C)(C1CCN(C(=O)Nc2cccc(C(F)(F)F)c2)CC1)C(O)c1cc(Cl)cc2cn[nH]c12 (stereo not drawn) [Compound P-0400, 4-(1-(5-chloro-1H-indazol-7-yl)-1-hydroxy-2-methylpropan-2-yl)-N-(3-(trifluoromethyl)phenyl)piperidine-1-carboxamide]
0.0001 to 10 | 0.0001 to 10 | 0.0001 to 10 | 0.0001 to 10 | – | – | CC(C)(C1CCN(C(=O)Nc2ccccc2C(F)(F)F)CC1)C(O)c1cc(Cl)cc2cn[nH]c12 (stereo not drawn) [Compound P-0401, 4-(1-(5-chloro-1H-indazol-7-yl)-1-hydroxy-2-methylpropan-2-yl)-N-(2-(trifluoromethyl)phenyl)piperidine-1-carboxamide]
0.0001 to 10 | 0.0001 to 10 | 0.0001 to 10 | 0.0001 to 10 | – | – | CN(C)c1ccc(NC(=O)N2CCC(C(C)(C)C(O)c3cc(Cl)cc4cn[nH]c34)CC2)cc1 (stereo not drawn) [Compound P-0402, 4-(1-(5-chloro-1H-indazol-7-yl)-1-hydroxy-2-methylpropan-2-yl)-N-(4-(dimethylamino)phenyl)piperidine-1-carboxamide]
0.0001 to 10 | 0.0001 to 10 | 0.0001 to 10 | 0.0001 to 10 | – | – | CC(C)(C1CCN(C(=O)Nc2ccc(OC(F)(F)F)cc2)CC1)C(O)c1cc(Cl)cc2cn[nH]c12 (stereo not drawn) [Compound P-0403, 4-(1-(5-chloro-1H-indazol-7-yl)-1-hydroxy-2-methylpropan-2-yl)-N-(4-(trifluoromethoxy)phenyl)piperidine-1-carboxamide]
0.0001 to 10 | 0.0001 to 10 | 0.0001 to 10 | 0.0001 to 10 | – | – | CC(C)(C1CCN(C(=O)Nc2cc(F)ccc2F)CC1)C(O)c1cc(Cl)cc2cn[nH]c12 (stereo not drawn) [Compound P-0404, 4-(1-(5-chloro-1H-indazol-7-yl)-1-hydroxy-2-methylpropan-2-yl)-N-(2,5-difluorophenyl) piperidine-1-carboxamide]
0.0001 to 10 | 0.0001 to 10 | 0.0001 to 10 | 0.0001 to 10 | – | – | CCOC(=O)NC(=O)N1CCC(C(C)(C)C(O)c2cc(Cl)cc3cn[nH]c23)CC1 (stereo not drawn) [Compound P-0405, ethyl (4-(1-(5-chloro-1H-indazol-7-yl)-1-hydroxy-2-methylpropan-2-yl)piperidine-1-carbonyl)carbamate]
0.0001 to 10 | 0.0001 to 10 | – | – | 0.0001 to 10 | 0.0001 to 10 | Cc1ccc(Cl)c(NC(=O)N2CCC(C(C)(C)C(O)c3cc(Cl)cc4cn[nH]c34)CC2)c1 (stereo not drawn) [Compound P-0406, 4-(1-(5-chloro-1H-indazol-7-yl)-1-hydroxy-2-methylpropan-2-yl)-N-(2-chloro-5-methylphenyl) piperidine-1-carboxamide]
0.0001 to 10 | 0.0001 to 10 | – | – | > 10 | 0.0001 to 10 | OC1(c2cc(Cl)cc3cn[nH]c23)[C@H]2CCC[C@@H]1CCC2 (stereo partly drawn) [Compound P-0407, (1R,5S)-9-(5-chloro-1H-indazol-7-yl)bicyclo[3.3.1] nonan-9-ol]
0.0001 to 10 | 0.0001 to 10 | – | – | 0.0001 to 10 | 0.0001 to 10 | O=C(CC1CC1)N1CCC(C(F)(F)C(O)c2c(F)c(Cl)cc3cn[nH]c23)CC1 (stereo not drawn) [Compound P-0408, 1-(4-(2-(5-chloro-6-fluoro-1H-indazol-7-yl)-1,1-difluoro-2-hydroxyethyl)piperidin-1-yl)-2-cyclopropylethan-1-one]
0.0001 to 10 | 0.0001 to 10 | – | – | 0.0001 to 10 | 0.0001 to 10 | O=C(C1CCC1)N1CCC(C(F)(F)C(O)c2c(F)c(Cl)cc3cn[nH]c23)CC1 (stereo not drawn) [Compound P-0409, (4-(2-(5-chloro-6-fluoro-1H-indazol-7-yl)-1,1-difluoro-2-hydroxyethyl)piperidin-1-yl)(cyclobutyl) methanone]
0.0001 to 10 | 0.0001 to 10 | – | – | 0.0001 to 10 | 0.0001 to 10 | CC(C)(C1CCN(C(=O)CC2CC2)CC1)C(O)c1cc(Cl)cc2cn[nH]c12 (stereo not drawn) [Compound P-0410, 1-(4-(1-(5-chloro-1H-indazol-7-yl)-1-hydroxy-2-methylpropan-2-yl)piperidin-1-yl)-2-cyclopropylethan-1-one]
0.0001 to 10 | 0.0001 to 10 | – | – | 0.0001 to 10 | 0.0001 to 10 | CC(C)CC(=O)N1CCC(C(C)(C)C(O)c2cc(Cl)cc3cn[nH]c23)CC1 (stereo not drawn) [Compound P-0411, 1-(4-(1-(5-chloro-1H-indazol-7-yl)-1-hydroxy-2-methylpropan-2-yl)piperidin-1-yl)-3-methylbutan-1-one]
0.0001 to 10 | 0.0001 to 10 | – | – | 0.0001 to 10 | 0.0001 to 10 | CC(C)(C1CCN(C(=O)C2CCC2)CC1)C(O)c1cc(Cl)cc2cn[nH]c12 (stereo not drawn) [Compound P-0412, (4-(1-(5-chloro-1H-indazol-7-yl)-1-hydroxy-2-methylpropan-2-yl)piperidin-1-yl)(cyclobutyl) methanone]
0.0001 to 10 | 0.0001 to 10 | – | – | 0.0001 to 10 | 0.0001 to 10 | CC(C)C(=O)N1CCC(C(C)(C)C(O)c2cc(Cl)cc3cn[nH]c23)CC1 (stereo not drawn) [Compound P-0413, 1-(4-(1-(5-chloro-1H-indazol-7-yl)-1-hydroxy-2-methylpropan-2-yl)piperidin-1-yl)-2-methylpropan-1-one]
0.0001 to 10 | 0.0001 to 10 | – | – | 0.0001 to 10 | 0.0001 to 10 | COCC(=O)N1CCC(C(C)(C)C(O)c2cc(Cl)cc3cn[nH]c23)CC1 (stereo not drawn) [Compound P-0414, 1-(4-(1-(5-chloro-1H-indazol-7-yl)-1-hydroxy-2-methylpropan-2-yl)piperidin-1-yl)-2-methoxyethan-1-one]
0.0001 to 10 | 0.0001 to 10 | – | – | 0.0001 to 10 | > 10 | CS(=O)(=O)NC12CCC(C(O)c3cc(Cl)cc4cn[nH]c34)(CC1)CC2 (stereo not drawn) [Compound P-0415, N-(4-((5-chloro-1H-indazol-7-yl)(hydroxy)methyl)bicyclo[2.2.2]octan-1-yl) methanesulfonamide]
0.0001 to 10 | 0.0001 to 10 | – | – | 0.0001 to 10 | 0.0001 to 10 | CC(C)(C1CCN(C(=O)C2CC2)CC1)C(O)c1c(F)c(Cl)cc2cn[nH]c12 (stereo not drawn) [Compound P-0416, (4-(1-(5-chloro-6-fluoro-1H-indazol-7-yl)-1-hydroxy-2-methylpropan-2-yl)piperidin-1-yl)(cyclopropyl) methanone]
0.0001 to 10 | 0.0001 to 10 | – | – | 0.0001 to 10 | 0.0001 to 10 | CC(C)(C1CCN(C(=O)c2ccccc2)CC1)C(O)c1c(F)c(Cl)cc2cn[nH]c12 (stereo not drawn) [Compound P-0417, (4-(1-(5-chloro-6-fluoro-1H-indazol-7-yl)-1-hydroxy-2-methylpropan-2-yl)piperidin-1-yl)(phenyl) methanone]
0.0001 to 10 | 0.0001 to 10 | – | – | 0.0001 to 10 | 0.0001 to 10 | CC(C)(C1CCN(C(=O)c2cccnc2)CC1)C(O)c1c(F)c(Cl)cc2cn[nH]c12 (stereo not drawn) [Compound P-0418, (4-(1-(5-chloro-6-fluoro-1H-indazol-7-yl)-1-hydroxy-2-methylpropan-2-yl)piperidin-1-yl)(pyridin-3-yl)methanone]
0.0001 to 10 | 0.0001 to 10 | – | – | 0.0001 to 10 | 0.0001 to 10 | COCCNC(=O)N1CCC(C(C)(C)C(O)c2c(F)c(Cl)cc3cn[nH]c23)CC1 (stereo not drawn) [Compound P-0419, 4-(1-(5-chloro-6-fluoro-1H-indazol-7-yl)-1-hydroxy-2-methylpropan-2-yl)-N-(2-methoxyethyl) piperidine-1-carboxamide]
0.0001 to 10 | 0.0001 to 10 | – | – | 0.0001 to 10 | 0.0001 to 10 | COCCCNC(=O)N1CCC(C(C)(C)C(O)c2c(F)c(Cl)cc3cn[nH]c23)CC1 (stereo not drawn) [Compound P-0420, 4-(1-(5-chloro-6-fluoro-1H-indazol-7-yl)-1-hydroxy-2-methylpropan-2-yl)-N-(3-methoxypropyl) piperidine-1-carboxamide]
0.0001 to 10 | 0.0001 to 10 | – | – | 0.0001 to 10 | 0.0001 to 10 | CCC(=O)N1CCC(C(C)(C)C(O)c2c(F)c(Cl)cc3cn[nH]c23)CC1 (stereo not drawn) [Compound P-0421, 1-(4-(1-(5-chloro-6-fluoro-1H-indazol-7-yl)-1-hydroxy-2-methylpropan-2-yl)piperidin-1-yl)propan-1-one]
0.0001 to 10 | 0.0001 to 10 | – | – | 0.0001 to 10 | 0.0001 to 10 | CC(=O)N1CCC(C(C)(C)[C@@H](O)c2cc(Cl)cc3cn[nH]c23)CC1 [Compound P-0422, (R)-1-(4-(1-(5-chloro-1H-indazol-7-yl)-1-hydroxy-2-methylpropan-2-yl)piperidin-1-yl)ethan-1-one]
